According to patent publication US20210047262A1, “2-(3,4-DIHYDROXYPHENYL)ETHYL 3-HYDROXYBUTANOATE, COMPOSITION, AND METHOD FOR IMPROVING FUNCTION OF AORTIC ENDOTHELIAL CELL” (XI'AN JIAOTONG UNIVERSITY, priority 2019, published 2021):

Legend:
interleukin-6 (IL-6) = test: IL-6 mRNA level detection (RT-PCR) in HAECs; format: cell-based, human; conditions: FIG. 2
Description: (§1) Human aortic endothelial cells (HAECs) were purchased from Shanghai Shanghai Bioleaf Biotech Co., Ltd. Palmitic acid (PA) was purchased from SIGMA Company. A palmitic acid solution having a concentration of 500 μM was prepared by dissolving palmitic acid in water. A cell culture incubator was adopted to culture the cells in a temperature-constant, humidified, sterile condition. The cells were cultured in wells of culture plates at an atmosphere of 95% air and 5% CO2 at 37° C. in the incubator. The experiments were performed on different experimental groups of cells.
The HAECs that were previously cultured in a 12-well cell culture plate were divided into 4 different experimental groups and respectively applied with HT-HB in different concentrations, 0 μM, 0 μM, 50 μM, 100 μM, all followed with an 24-hour incubation. Then, the last 3 groups of cells were respectively applied with 500 μM palmitic acid, the first was not, all followed with another 24-hour incubation. The detecting of mRNA levels corresponding to interleukin-6 (IL-6) was respectively carried out on each group of cells by using reverse transcription RNA and real-time quantitative polymerase chain reaction (PCR), and the specific method is as follows:
The medium for cell culture in the wells was removed. […] The concentration of the solution was measured by an ultraviolet spectrophotometer. […]

mitochondrial complex I = test: Protein detection by Western blot in HAECs, mitochondrial complex I; format: cell-based, human; conditions: FIG. 3A, 3B
Description: as §1
The HAECs that were previously cultured in a 6-well cell culture plate were divided into 3 different experimental groups, the control (Ctrl) group, the PA group, and the HT-HB+PA group. The cells of the HT-HB+PA group were applied with HT-HB in a concentration of 100 µM followed with an 24-hour incubation. […]
The medium for cell culture in the wells was removed. […] The supernatants were collected, and the proteins therein were quantified by bicinchoninic acid (BCA) assay, and normalized. […]
10 μg of the extracted proteins were subjected to gel electrophoresis with 10% acrylamide gel, and electrophoretic transferred onto a PVDF membrane, which were blocked, and incubated with a primary antibody at 4° C. overnight, free primary antibody was washed away. […] Target proteins were detected by chemiluminescence.

[1] = system: Human aortic endothelial cells (HAECs); test: MTT assay, cell viability of HAECs; format: cell-based; conditions: FIG. 1
Description: as §1
The HAECs that were previously cultured in a 12-well cell culture plates were divided into 6 different experimental groups and respectively applied with HT-HB in different concentrations, 0 μM, 1 μM, 10 μM, 50 μM, 100 μM, and 200 μM, all followed with an 24-hour incubation. Then, each of the 6 groups of cells was further divided into two sub groups, one was applied with 500 µM palmitic acid, the other was not, all followed with another 24-hour incubation.
An MTT assay was performed to all groups of cells. […] The absorbance was measured at a wavelength of 490 nm in a spectrophotometer. The absorbance of this colored solution can be quantified by measuring at a certain wavelength (usually between 500 and 600 nm) by a spectrophotometer.

mitochondrial complex II = test: Protein detection by Western blot in HAECs, mitochondrial complex II; format: cell-based, human; conditions: 500 μM palmitic acid 24 h, vs control, FIG. 3A, 3B
Description: Human aortic endothelial cells (HAECs) were purchased from Shanghai Shanghai Bioleaf Biotech Co., Ltd. Palmitic acid (PA) was purchased from SIGMA Company. A palmitic acid solution having a concentration of 500 μM was prepared by dissolving palmitic acid in water. A cell culture incubator was adopted to culture the cells in a temperature-constant, humidified, sterile condition. The cells were cultured in wells of culture plates at an atmosphere of 95% air and 5% CO2 at 37° C. in the incubator. The experiments were performed on different experimental groups of cells. The HAECs that were previously cultured in a 6-well cell culture plate were divided into 3 different experimental groups, the control (Ctrl) group, the PA group, and the HT-HB+PA group. The cells of the HT-HB+PA group were applied with HT-HB in a concentration of 100 µM followed with an 24-hour incubation. Then, the cells of both the PA group and the HT-HB+PA group were applied with 500 μM palmitic acid, all followed with another 24-hour incubation. The protein detection was respectively carried out on each group of cells as follows. The medium for cell culture in the wells was removed. […] The supernatants were collected, and the proteins therein were quantified by bicinchoninic acid (BCA) assay, and normalized. […] Target proteins were detected by chemiluminescence.

Structure (SMILES) | mRNA level corresponding to IL-6 (interleukin-6 (IL-6); HAECs pretreated with HT-HB 100 M for 24 h, then 500 μM palmitic acid 24 h) | relative protein expression level of mitochondrial complex I (mitochondrial complex I; HT-HB 100 M 24 h, then 500 μM palmitic acid 24 h, vs PA group) | relative cell viability ([1]; HAECs not treated with palmitic acid, HT-HB 1 μM to 100 μM, vs cells without HT-HB (control)) | relative cell viability ([1]; HAECs pretreated with HT-HB 1 μM to 100 μM for 24 h, then 500 µM palmitic acid 24 h, vs palmitic acid treated cells without HT-HB) | increase of mRNA level corresponding to IL-6 (interleukin-6 (IL-6); HAECs, 500 μM palmitic acid 24 h, vs control group) | relative protein expression level of mitochondrial complex I (mitochondrial complex I; 500 μM palmitic acid 24 h, vs control) | relative protein expression level of mitochondrial complex II (mitochondrial complex II)
CC(O)CC(=O)OCCc1ccc(O)c(O)c1 (stereo not shown) [HT-HB, 2-(3,4-dihydroxyphenyl)ethyl 3-hydroxybutanoate] | significantly decreased | significantly increasing the expression | higher viabilities | higher viabilities |  |  | 
CCCCCCCCCCCCCCCC(=O)O [palmitic acid, reference compound] |  |  |  |  | about 10 times | reducing the expression | reducing the expression
